Laboratory results taken from patent publication US20220389010A1, “Novel Triazolopyridine Derivatives and Pharmaceutical Composition Comprising Same” (Daewoong Pharmaceutical Co., Ltd., priority 2019, published 2022).

target: T1, Recombinant purified human JAK3 (Homo sapiens, UniProt P52333); experiment: JAK3 inhibitory activity test (ADP-Glo kinase assay); format: biochemical; settings: ATP 5 uM, 1 hour incubation at 30° C.
T1 construct: purchased Promega V9441
T1 sequence (P52333 1-1124): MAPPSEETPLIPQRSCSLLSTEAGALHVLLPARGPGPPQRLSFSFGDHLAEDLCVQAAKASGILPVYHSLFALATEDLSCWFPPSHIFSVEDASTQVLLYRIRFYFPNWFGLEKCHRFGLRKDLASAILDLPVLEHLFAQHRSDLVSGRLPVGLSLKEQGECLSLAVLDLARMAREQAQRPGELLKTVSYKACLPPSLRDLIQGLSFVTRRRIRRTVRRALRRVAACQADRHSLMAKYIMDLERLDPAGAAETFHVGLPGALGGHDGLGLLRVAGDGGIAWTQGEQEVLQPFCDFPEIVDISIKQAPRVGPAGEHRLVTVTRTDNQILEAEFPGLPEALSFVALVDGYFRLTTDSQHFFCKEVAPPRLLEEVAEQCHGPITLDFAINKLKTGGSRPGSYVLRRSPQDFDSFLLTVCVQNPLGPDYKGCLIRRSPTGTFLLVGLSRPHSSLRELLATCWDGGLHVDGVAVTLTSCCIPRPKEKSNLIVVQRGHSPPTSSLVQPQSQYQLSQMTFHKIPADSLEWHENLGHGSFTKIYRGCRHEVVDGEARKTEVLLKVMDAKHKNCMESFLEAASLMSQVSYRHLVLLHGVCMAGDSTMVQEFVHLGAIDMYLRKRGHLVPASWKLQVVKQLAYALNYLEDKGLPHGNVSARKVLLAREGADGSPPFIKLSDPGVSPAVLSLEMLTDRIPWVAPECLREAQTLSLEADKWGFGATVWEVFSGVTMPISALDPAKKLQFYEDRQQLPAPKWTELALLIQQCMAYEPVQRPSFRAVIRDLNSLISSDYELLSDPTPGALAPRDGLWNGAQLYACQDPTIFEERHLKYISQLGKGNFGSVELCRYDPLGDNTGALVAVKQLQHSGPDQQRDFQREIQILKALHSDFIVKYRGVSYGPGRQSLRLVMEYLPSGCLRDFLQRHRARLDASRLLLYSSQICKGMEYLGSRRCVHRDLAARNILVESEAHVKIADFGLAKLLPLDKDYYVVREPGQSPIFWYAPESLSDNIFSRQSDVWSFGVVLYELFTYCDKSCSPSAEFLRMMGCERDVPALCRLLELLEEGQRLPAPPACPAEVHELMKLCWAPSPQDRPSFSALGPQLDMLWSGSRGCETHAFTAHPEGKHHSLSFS
Procedure: The inhibitory activities against JAK3 were measured for the compounds prepared in the above Examples through in vitro analysis on the ADP Glow (Glo) platform.
Specifically, the inhibitory activities against JAK3 were measured using a JAK3 kinase assay kit (Promega, V9441), which was purchased from Promega. Recombinant purified human JAK3 was diluted with 1× kinase reaction buffer (JAK3: 40 mM Tris-CI, pH 7.5, 20 mM MgCl2, 0.1 mg/mL BSA and 50 uM OTT and added to a 96 well plate (JAK3: final concentration of 4 ng per reaction). The compounds prepared in the previous Examples were treated so as to be finally a 1% DMSO aqueous solution, and a substrate cocktail containing ATP (JAK3: final concentration of 5 uM) and 0.2 ug/ul of Poly(Glu4, Tyri) peptide (JAK3 final concentration) in the total 25 uL reactants was added to a 96-well plate to initiate enzymatic reaction. After incubation (30° C.) for 1 hour, equivalent volume (25 uL per reaction) of ADP Glo was added and incubated (30° C.) for 40 minutes at room temperature. Then, a kinase detection reagent (50 uL per reaction) was added and incubated (30° C.) for 30 minutes at room temperature. The kinase activity was measured by chemiluminescence according to the instructions of ADP Glo kinase assay kit, and the inhibitory activity of the compounds according to the present invention was calculated. For the analysis of the results of each compound, Microsoft Excel was used, and IC50 values were calculated by SigmaPlot software.

Row | IC50 [nM] | SMILES
1 | 2.4 | C=CC(=O)Nc1cccc(Oc2cccc3nc(Nc4ccc5ncsc5c4)nn23)c1 [Example 3, N-(3-(2-(benzo[d]thiazol-6-ylamino)-[1,2,4]triazolo[1,5-a]pyridin-5-yloxy)phenyl)acrylamide]
2 | 15.5 | C=CC(=O)Nc1cccc(Oc2cccc3nc(Nc4cnc5ccccc5c4)nn23)c1 [Example 24, N-(3-(2-(quinolin-3-ylamino)-[1,2,4]triazolo[1,5-a]pyridin-5-yloxy)phenyl)acrylamide]
3 | 0.7 | C=CC(=O)Nc1cccc(Oc2cccc3nc(Nc4ccc(C(=O)N5CCOCC5)cc4)nn23)c1 [Example 17, N-(3-(2-(4-(morpholine-4-carbonyl)phenylamino)-[1,2,4]triazolo[1,5-a]pyridin-5-yloxy)phenyl)acrylamide]
4 | > 400 | C=CC(=O)Nc1cccc(Oc2cccc3nc(Nc4cccc5ccccc45)nn23)c1 [Example 23, N-(3-(2-(naphthalen-1-ylamino)-[1,2,4]triazolo[1,5-a]pyridin-5-yloxy)phenyl)acrylamide]
5 | 3.6 | C=CC(=O)Nc1cccc(Oc2cccc3nc(Nc4ccc(-n5nc(C)cc5C)cc4)nn23)c1 [Example 10, N-(3-(2-(4-(3,5-dimethyl-1H-pyrazol-1-yl)phenylamino)-[1,2,4]triazolo[1,5-a]pyridin-5-yloxy)phenyl)acrylamide]
6 | 1.3 | C=CC(=O)Nc1ccc(F)c(Oc2cccc3nc(Nc4ccc(N5CCOCC5)cc4)nn23)c1 [Example 27, N-(4-fluoro-3-(2-(4-morpholinophenylamino)-[1,2,4]triazolo[1,5-a]pyridin-5-yloxy)phenyl)acrylamide]
7 | 1.3 | C=CC(=O)Nc1cccc(Oc2cccc3nc(Nc4cnn(C(F)F)c4)nn23)c1 [Example 8, N-(3-(2-(1-(difluoromethyl)-1H-pyrazol-4-ylamino)-[1,2,4]triazolo[1,5-a]pyridin-5-yloxy)phenyl)acrylamide]
8 | 0.7 | C=CC(=O)Nc1ccc(F)c(Oc2cccc3nc(Nc4ccc(N5CCN(C)CC5)cc4)nn23)c1 [Example 29, N-(4-fluoro-3-(2-(4-(4-methylpiperazin-1-yl)phenylamino)-[1,2,4]triazolo[1,5-a]pyridin-5-yloxy)phenyl)acrylamide]
9 | > 400 | C=CC(=O)Nc1cccc(Oc2cccc3nc(Nc4nc5ccc(Cl)cc5s4)nn23)c1 [Example 22, N-(3-(2-(6-chlorobenzo[d]thiazol-2-ylamino)-[1,2,4]triazolo[1,5-a]pyridin-5-yloxy)phenyl)acrylamide]
10 | 105 | C=CC(=O)Nc1cccc(Oc2cccc3nc(Nc4cnc5onc(C)c5c4)nn23)c1 [Example 25, N-(3-(2-(3-methylisoxazolo[5,4-b]pyridin-5-ylamino)-[1,2,4]triazolo[1,5-a]pyridin-5-yloxy)phenyl)acrylamide]
11 | 2.6 | C=CC(=O)Nc1cccc(Oc2cccc3nc(Nc4ccc5scnc5c4)nn23)c1 [Example 12, N-(3-(2-(benzo[d]thiazol-5-ylamino)-[1,2,4]triazolo[1,5-a]pyridin-5-yloxy)phenyl)acrylamide]
12 | 9.8 | C=CC(=O)Nc1cccc(Oc2cccc3nc(Nc4ccc(Oc5ccccc5)cc4)nn23)c1 [Example 13, N-(3-(2-(4-phenoxyphenylamino)-[1,2,4]triazolo[1,5-a]pyridin-5-yloxy)phenyl)acrylamide]
13 | 18.2 | C=CC(=O)Nc1ccc(F)c(Oc2cccc3nc(Nc4cnn(C(F)F)c4)nn23)c1 [Example 31, N-(3-(2-(1-(difluoromethyl)-1H-pyrazol-4-ylamino)-[1,2,4]triazolo[1,5-a]pyridin-5-yloxy)-4-fluorophenyl)acrylamide]
14 | 10.4 | C=CC(=O)Nc1cccc(Oc2cccc3nc(Nc4cccc(-n5nc(C)cc5C)c4)nn23)c1 [Example 9, N-(3-(2-(3-(3,5-dimethyl-1H-pyrazol-1-yl)phenylamino)-[1,2,4]triazolo[1,5-a]pyridin-5-yloxy)phenyl)acrylamide]
15 | 1.2 | C=CC(=O)Nc1cccc(Oc2cccc3nc(Nc4cccc(-n5nnnc5C)c4)nn23)c1 [Example 7, N-(3-(2-(3-(5-methyl-1H-tetrazol-1-yl)phenylamino)-[1,2,4]triazolo[1,5-a]pyridin-5-yloxy)phenyl)acrylamide]
16 | > 80 | C=CC(=O)Nc1cccc(Oc2cccc3nc(Nc4cnc5ncn(C)c5c4)nn23)c1 [Example 26, N-(3-(2-(1-methyl-1H-imidazo[4,5-b]pyridin-6-ylamino)-[1,2,4]triazolo[1,5-a]pyridin-5-yloxy)phenyl)acrylamide]
17 | 0.6 | C=CC(=O)Nc1cccc(Oc2cccc3nc(Nc4ccc(N5CCOCC5)cc4)nn23)c1 [Example 4, N-(3-(2-(4-morpholinophenylamino)-[1,2,4]triazolo[1,5-a]pyridin-5-yloxy)phenyl)acrylamide]
18 | 0.7 | C=CC(=O)Nc1cccc(Oc2cccc3nc(Nc4ccc(N5CCOCC5)nc4)nn23)c1 [Example 21, N-(3-(2-(6-morpholinopyridin-3-ylamino)-[1,2,4]triazolo[1,5-a]pyridin-5-yloxy)phenyl)acrylamide]
19 | 11.1 | C=CC(=O)Nc1cccc(Oc2cccc3nc(Nc4cnn(Cc5cccc(OC)c5)c4)nn23)c1 [Example 14, N-(3-(2-(1-(3-methoxybenzyl)-1H-pyrazol-4-ylamino)-[1,2,4]triazolo[1,5-a]pyridin-5-yloxy)phenyl)acrylamide]
20 | 1.2 | C=CC(=O)Nc1ccc(F)c(Oc2cccc3nc(Nc4ccc5ncsc5c4)nn23)c1 [Example 28, N-(3-(2-(benzo[d]thiazol-6-ylamino)-[1,2,4]triazolo[1,5-a]pyridin-5-yloxy)-4-fluorophenyl)acrylamide]
21 | 1.1 | C=CC(=O)Nc1cccc(Oc2cccc3nc(Nc4cnn(C)c4)nn23)c1 [Example 2, N-(3-(2-(1-methyl-1H-pyrazol-4-ylamino)-[1,2,4]triazolo[1,5-a]pyridin-5-yloxy)phenyl)acrylamide]
22 | 0.7 | C=CC(=O)Nc1cccc(Oc2cccc3nc(Nc4ccc(CN(C)C)cc4)nn23)c1 [Example 16, N-(3-(2-(4-((dimethylamino)methyl)phenylamino)-[1,2,4]triazolo[1,5-a]pyridin-5-yloxy)phenyl)acrylamide]
23 | 13.1 | C=CC(=O)Nc1ccc(F)c(Oc2cccc3nc(Nc4cnn(C)c4)nn23)c1 [Example 30, N-(4-fluoro-3-(2-(1-methyl-1H-pyrazol-4-ylamino)-[1,2,4]triazolo[1,5-a]pyridin-5-yloxy)phenyl)acrylamide]
24 | 0.47 | C=CC(=O)Nc1cccc(Oc2cccc3nc(Nc4ccc(N5CCN(C)CC5)cc4)nn23)c1 [Example 1, N-(3-(2-(4-(4-methylpiperazin-1-yl)phenylamino)-[1,2,4]triazolo[1,5-a]pyridin-5-yloxy)phenyl)acrylamide]
25 | 3 | C=CC(=O)Nc1cccc(Oc2cccc3nc(Nc4ccc(S(=O)(=O)N5CCCCC5)cc4)nn23)c1 [Example 18, N-(3-(2-(4-(piperidin-1-ylsulfonyl)phenylamino)-[1,2,4]triazolo[1,5-a]pyridin-5-yloxy)phenyl)acrylamide]
26 | 0.6 | CC#CC(=O)Nc1cccc(Oc2cccc3nc(Nc4ccc(N5CCN(C)CC5)cc4)nn23)c1 [Example 20, N-(3-(2-(4-(4-methylpiperazin-1-yl)phenylamino)-[1,2,4]triazolo[1,5-a]pyridin-5-yloxy)phenyl)but-2-ynamide]
